Tests used:
[1] = tested on: KEGG pathways of the gut microbiome; experiment: KEGG pathway differential abundance analysis of stool metagenome; format: in vivo, human; set-up: key to * (direction of KEGG pathway change): “↑” means the pathway is up-regulated on day 16; “↓” means the pathway is down-regulated on day 16; details: for * (direction of KEGG pathway change): KEGG pathway of the table row, day 16
Excerpt: HUMAnN2 (Abubucker et al., PLoS Comput. Biol. 8, e1002358 (2012)) was used to calculate gene and pathway abundance from metagenomic sequencing data. Uniref50 (UniProt® Consortium, Nucleic Acids Res. 43, D204 (2015)) was used for gene family definition. MetaCyc (Caspi et al., Nucleic Acids Res. 42, D459 (2014)) and KEGG (Kanehisa and Goto, Nucleic Acids Res. 28, 27 (2000); Kanehisa et al., Nucleic Acids Res. 44, D457 (2016)) were used for pathway analysis. • Gene family identification: Initially, 989251 gene families were identified from the dataset by HUMAnN2. Quantile normalization was implemented. For each sample, the RPK values were added up till 90% percentile of all genes (normalization factor, nf). RPK value of each gene in each sample was then divided by the nf of the sample, and multiplied with the mean of nf of all samples. 683270 uncharacterized genes were removed. Genes undetected in over 90% of samples (101994) were removed. 203987 genes were kept. Due to the large number of genes identified, 25% of the most varying genes were selected for further analysis. The most varying genes were defined by the coefficient variation (cv=sd/mean) of log 2 transformed value. • MetaCyc pathway identification: HUMAnN2 identified 567 MetaCyc pathways from the dataset. Quantile normalization was then performed. For each sample, the abundance values were added up till 90% percentile of all pathways (normalization factor, nf). Each pathway abundance in each sample was divided by the nf of the sample, and then multiplied with the mean of nf for all samples. The low abundance pathways (52), which were not detected on over 90% of all samples, were removed. 515 high quality MetaCyc pathways were kept for further analysis. • KEGG pathway identification: HUMAnN2 identified 160 KEGG pathways from the dataset. Quantile normalization was applied, and low abundance pathways were removed. 66 high quality KEGG pathways were kept for further analysis.
gene abundance˜aov(day*OCAdose+error(subject ID)) • Pathway differential abundance analysis: For each of the identified pathways, repeated measure ANOVA was also performed to study the time effect and OCA dose effect on pathway abundance change.
pathway abundance˜aov(day*OCAdose+error(subject ID)) • FGF19 analysis: The GEE model was applied in order to study the relationship of FGF19 change with the microbiome, gene family, and the pathway abundance change over time. The R function geeglm from R package geepack was used for gee modeling. Both FGF19 level and species/gene/pathway relative abundance were log 2 transformed before applying GEE model.

[2] = tested on: C4 (7α-hydroxy-4-cholesten-3-one); experiment: Plasma C4 level after OCA and its association with microbiome species (GEE); format: in vivo, human
Procedure: C4 level was measured on 5 mg and 10 mg OCA dose groups. The day 1 pre-dose C4 was used as a match of day 1 microbiome measurement. The average level of C4 from day 4 to day 17 pre-dose was calculated as a match of day 15 or 16 microbiome measurement. The average C4 level on day 30 and day 44 was used as a match of microbiome on day 37. The average of multiple time points was taken to match the three time points of microbiome measurements.
Geeglm(fgf19·log 2˜hour+dose+hour:dose, id=sID, corstr=“exchangeable”) • C4 analysis: The GEE model was applied in association study of C4 and microbiome species. Both C4 and species relative abundance were log 2 transformed before applying GEE model.
Geeglm(species·log 2˜C4·log 2, id=sID, corstr=“exchangeable”)
Twenty-four healthy subjects were randomly assigned to one of three dose groups (5 mg, 10 mg, or 25 mg OCA per day), with each dose group comprising eight subjects (four women and four men). A single oral OCA dose of 5 mg, 10 mg, or 25 mg tablets, depending on the treatment assignment, was administered on Day 1. In the multiple-dose phase, a single oral OCA dose of 5 mg, 10 mg, or 25 mg tablets, in accordance with the assigned treatment, was administered orally once daily for 14 days from Days 4-17. The patients remained at the study site until Day 30, and were followed up until the final visit on Day 44 (FIG. 62A). Fecal specimens were collected at baseline (Day 0), at the end of the multiple-dose phase (Day 17), and at the end of the study (Day 37). Pharmacokinetic blood samples were assessed pre-dose and on Days 1-3, 17, 35, 37, 39, and 44. […] Therefore, plasma C4 levels are a reliable dynamic indicator of the host response to FXR activation by OCA, that leads to the suppression of endogenous bile acid synthesis (Hirschfield et al., Gastroenterology 148, 751-761 e758 (2015); Mudaliar et al., Gastroenterology 145, 574-582 e571 (2013)).

CC[C@H]1[C@@H](O)[C@@H]2[C@H](CC[C@]3(C)[C@@H]([C@H](C)CCC(=O)O)CC[C@@H]23)[C@@]2(C)CC[C@@H](O)C[C@@H]12 [OCA, 3α,7α-dihydroxy-6α-ethyl-5β-cholan-24-oic acid]
* (direction of KEGG pathway change) ([1]; Fatty acid biosynthesis): ↓ | * (direction of KEGG pathway change) ([1]; Purine metabolism): ↑ | number of KEGG pathways differentially abundant over time ([1]; of 66, FDR<0.05 for time effect): 26 | OCA dose effect on KEGG pathway abundance ([1]; repeated measure ANOVA, FDR<0.05): No OCA dose or dose×day interaction was observed | plasma levels of C4 relative to Day 0 (pre-OCA dose) ([2]; Day 16): maximally suppressed | plasma levels of C4 at maximal time off OCA ([2]; Day 37): returned to normal | plasma C4 in response to OCA treatment ([2]; serial quantification, repeated measure ANOVA): time-dependent reduction
